{"source": "ChEMBL document CHEMBL5620385", "about": "“Orally bioavailable styryl derivative of rohitukine-N-oxide inhibits CDK9/T1 and the growth of pancreatic cancer cells” (Eur J Med Chem, 2023)", "key": {"MIA PaCa-2 [1]": {"tested_on": "MIA PaCa-2", "test": "Antiproliferative activity against human MIA PaCa-2 cells assessed as cell growth inhibition at 10 uM incubated for 48 hrs by MTT assay relative to control", "assay_type": "functional"}, "CDK9/Cyclin K": {"target": "CDK9/Cyclin K (Homo sapiens, UniProt P50750)", "sequence (P50750 whole entry)": "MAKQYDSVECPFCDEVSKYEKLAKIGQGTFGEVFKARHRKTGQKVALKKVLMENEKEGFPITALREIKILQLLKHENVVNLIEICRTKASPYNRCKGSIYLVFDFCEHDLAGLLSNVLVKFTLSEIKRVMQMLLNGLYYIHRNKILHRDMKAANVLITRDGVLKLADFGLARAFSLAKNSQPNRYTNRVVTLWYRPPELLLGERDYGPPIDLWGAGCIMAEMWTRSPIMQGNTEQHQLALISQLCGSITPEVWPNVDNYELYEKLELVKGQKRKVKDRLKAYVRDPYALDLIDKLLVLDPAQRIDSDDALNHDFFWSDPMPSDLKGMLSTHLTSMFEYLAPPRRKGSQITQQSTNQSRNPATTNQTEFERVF", "sequence (O75909 whole entry, further chain)": "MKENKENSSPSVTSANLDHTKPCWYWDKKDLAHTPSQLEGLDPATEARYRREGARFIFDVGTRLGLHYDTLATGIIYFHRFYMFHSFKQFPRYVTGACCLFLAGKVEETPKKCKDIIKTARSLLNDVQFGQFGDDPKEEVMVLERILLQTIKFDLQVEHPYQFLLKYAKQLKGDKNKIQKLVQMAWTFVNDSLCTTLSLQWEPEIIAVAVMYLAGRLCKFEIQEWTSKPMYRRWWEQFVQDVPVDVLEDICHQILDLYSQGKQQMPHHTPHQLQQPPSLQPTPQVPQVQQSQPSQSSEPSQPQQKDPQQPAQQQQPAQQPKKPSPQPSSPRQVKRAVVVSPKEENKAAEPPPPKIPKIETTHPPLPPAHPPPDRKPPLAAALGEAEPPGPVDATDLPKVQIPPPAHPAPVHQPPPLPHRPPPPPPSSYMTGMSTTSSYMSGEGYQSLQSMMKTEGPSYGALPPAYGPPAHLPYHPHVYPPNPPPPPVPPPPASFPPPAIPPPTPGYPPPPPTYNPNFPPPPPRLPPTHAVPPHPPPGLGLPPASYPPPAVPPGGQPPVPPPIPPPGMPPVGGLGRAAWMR", "test": "Inhibition of CDK9/cyclin K (unknown origin) by ADP-Glo assay", "assay_type": "protein-complex assay"}, "[2]": {"test": "AUC(0 to t) in BALB/c mouse at 30 mg/kg, po measured for 6 hrs by LC-MS/MS analysis", "assay_type": "ADME, organism-based", "conditions": "in vivo"}, "[3]": {"test": "Volume of distribution in BALB/c mouse at 5 mg/kg, iv measured for 6 hrs by LC-MS/MS analysis", "assay_type": "ADME, organism-based", "conditions": "in vivo"}, "MIA PaCa-2 [4]": {"tested_on": "MIA PaCa-2", "test": "Induction of intracellular ROS generation in human MIA PaCa-2 cells incubated for 48 hrs by DCFDA dye based analysis", "assay_type": "functional, cell-based"}, "MIA PaCa-2 [5]": {"tested_on": "MIA PaCa-2", "test": "Induction of mitochondrial membrane potential loss in human MIA PaCa-2 cells incubated for 48 hrs by Rhodamine-123 dye based analysis", "assay_type": "functional, cell-based"}, "[6]": {"test": "Clearance in BALB/c mouse at 30 mg/kg, po measured for 6 hrs by LC-MS/MS analysis", "assay_type": "ADME, organism-based", "conditions": "in vivo"}, "MIA PaCa-2 [7]": {"tested_on": "MIA PaCa-2", "test": "Induction of apoptosis in human MIA PaCa-2 cells assessed as chromatin condensation incubated for 48 hrs by DAPI staining based analysis", "assay_type": "functional, cell-based"}, "[8]": {"test": "Volume of distribution in BALB/c mouse at 30 mg/kg, po measured for 6 hrs by LC-MS/MS analysis", "assay_type": "ADME, organism-based", "conditions": "in vivo"}, "HCT-116 [9]": {"tested_on": "HCT-116", "test": "Antiproliferative activity against human HCT-116 cells assessed as cell growth inhibition at 10 uM incubated for 48 hrs by MTT assay relative to control", "assay_type": "functional"}, "[10]": {"test": "Metabolic stability in human liver microsomes assessed as drug metabolism at 10 uM measured after 30 mins in presence of NADPH by HPLC analysis", "assay_type": "ADME, Microsome", "conditions": "read-out: Drug metabolism"}, "[11]": {"test": "Half life in BALB/c mouse at 30 mg/kg, po measured for 6 hrs by LC-MS/MS analysis", "assay_type": "ADME, organism-based", "conditions": "in vivo"}, "[12]": {"test": "Metabolic stability in mouse liver microsomes assessed as drug metabolism at 10 uM measured after 30 mins in presence of NADPH by HPLC analysis", "assay_type": "ADME, Microsome", "conditions": "read-out: Drug metabolism"}, "[13]": {"test": "C0 in BALB/c mouse at 5 mg/kg, iv measured for 6 hrs by LC-MS/MS analysis", "assay_type": "ADME, organism-based", "conditions": "in vivo"}, "CDK9/cyclin T1": {"target": "CDK9/cyclin T1 (Homo sapiens, UniProt P50750)", "sequence (O60563 whole entry)": "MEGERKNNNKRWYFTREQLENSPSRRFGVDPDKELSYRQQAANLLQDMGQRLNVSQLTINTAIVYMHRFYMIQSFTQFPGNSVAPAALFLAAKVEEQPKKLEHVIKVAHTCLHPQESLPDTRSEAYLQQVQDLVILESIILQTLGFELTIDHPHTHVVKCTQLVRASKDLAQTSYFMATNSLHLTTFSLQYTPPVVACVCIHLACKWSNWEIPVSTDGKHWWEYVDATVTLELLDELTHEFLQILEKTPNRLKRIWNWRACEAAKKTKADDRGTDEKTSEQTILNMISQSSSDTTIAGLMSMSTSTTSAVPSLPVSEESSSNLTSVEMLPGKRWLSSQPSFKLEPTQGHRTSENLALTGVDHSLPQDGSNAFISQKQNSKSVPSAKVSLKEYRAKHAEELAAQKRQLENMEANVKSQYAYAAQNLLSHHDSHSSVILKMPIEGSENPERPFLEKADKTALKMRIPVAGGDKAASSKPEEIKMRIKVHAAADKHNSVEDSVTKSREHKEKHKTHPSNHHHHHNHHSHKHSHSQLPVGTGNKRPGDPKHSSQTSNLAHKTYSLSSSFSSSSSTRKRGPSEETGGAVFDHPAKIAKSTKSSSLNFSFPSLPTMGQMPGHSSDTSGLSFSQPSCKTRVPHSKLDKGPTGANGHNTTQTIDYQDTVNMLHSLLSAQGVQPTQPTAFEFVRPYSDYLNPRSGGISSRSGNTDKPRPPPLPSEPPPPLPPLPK", "sequence (P50750 whole entry)": "as the sequence (P50750 whole entry) above", "test": "Inhibition of CDK9/cyclin T1 (unknown origin) by ADP-Glo assay", "assay_type": "protein-complex assay"}, "HCT-116 [14]": {"tested_on": "HCT-116", "test": "Antiproliferative activity against human HCT-116 cells assessed as cell growth inhibition incubated for 48 hrs by MTT assay", "assay_type": "functional"}, "[15]": {"target": "Cyclin-dependent kinase 7/ cyclin H (Homo sapiens) (UniProt P51946+P50613)", "test": "Inhibition of CDK7/cyclin H (unknown origin) at 10 uM by ADP-Glo assay relative to control", "assay_type": "protein-complex assay"}, "[16]": {"test": "AUC(0 to infinity) in BALB/c mouse at 5 mg/kg, iv measured for 6 hrs by LC-MS/MS analysis", "assay_type": "ADME, organism-based", "conditions": "in vivo"}, "MIA PaCa-2 [17]": {"tested_on": "MIA PaCa-2", "test": "Antiproliferative activity against human MIA PaCa-2 cells assessed as cell growth inhibition incubated for 48 hrs by MTT assay", "assay_type": "functional"}, "[18]": {"test": "Clearance in BALB/c mouse at 5 mg/kg, iv measured for 6 hrs by LC-MS/MS analysis", "assay_type": "ADME, organism-based", "conditions": "in vivo"}, "[19]": {"target": "CDK9/Cyclin K (Homo sapiens) (UniProt P50750+O75909)", "test": "Inhibition of CDK9/cyclin K (unknown origin) at 10 uM by ADP-Glo assay relative to control", "assay_type": "protein-complex assay"}, "[20]": {"target": "Cyclin-dependent kinase 7/ cyclin H (Homo sapiens, UniProt P50613)", "sequence (P51946 whole entry)": "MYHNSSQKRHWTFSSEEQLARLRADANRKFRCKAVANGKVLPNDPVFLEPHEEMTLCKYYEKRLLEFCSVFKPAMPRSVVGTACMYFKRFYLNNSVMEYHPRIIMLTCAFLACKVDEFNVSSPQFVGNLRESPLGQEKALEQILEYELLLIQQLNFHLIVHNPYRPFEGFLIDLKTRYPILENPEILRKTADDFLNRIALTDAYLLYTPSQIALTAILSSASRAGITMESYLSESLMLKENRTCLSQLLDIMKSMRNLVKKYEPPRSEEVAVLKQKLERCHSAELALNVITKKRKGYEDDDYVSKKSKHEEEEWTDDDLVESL", "sequence (P50613 whole entry)": "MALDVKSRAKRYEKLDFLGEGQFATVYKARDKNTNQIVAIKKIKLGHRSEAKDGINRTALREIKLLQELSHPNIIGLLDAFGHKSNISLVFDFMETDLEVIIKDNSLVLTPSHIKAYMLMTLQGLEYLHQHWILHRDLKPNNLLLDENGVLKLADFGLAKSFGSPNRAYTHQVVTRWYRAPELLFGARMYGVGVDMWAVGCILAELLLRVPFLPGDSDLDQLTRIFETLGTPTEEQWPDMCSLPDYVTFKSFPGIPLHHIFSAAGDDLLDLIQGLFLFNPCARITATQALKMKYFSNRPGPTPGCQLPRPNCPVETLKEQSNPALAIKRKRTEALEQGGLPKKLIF", "test": "Inhibition of CDK7/cyclin H (unknown origin) by ADP-Glo assay", "assay_type": "protein-complex assay"}, "[21]": {"test": "Antiproliferative activity against HEK293 cells assessed as cell growth inhibition at 10 uM incubated for 48 hrs by MTT assay relative to control", "assay_type": "toxicity, cell-based", "conditions": "human"}, "[22]": {"test": "AUC(0 to infinity) in BALB/c mouse at 30 mg/kg, po measured for 6 hrs by LC-MS/MS analysis", "assay_type": "ADME, organism-based", "conditions": "in vivo"}, "[23]": {"test": "Cmax in BALB/c mouse at 30 mg/kg, po measured for 6 hrs by LC-MS/MS analysis", "assay_type": "ADME, organism-based", "conditions": "in vivo"}, "[24]": {"test": "Half life in BALB/c mouse at 5 mg/kg, iv measured for 6 hrs by LC-MS/MS analysis", "assay_type": "ADME, organism-based", "conditions": "in vivo"}, "[25]": {"test": "AUC(0 to t) in BALB/c mouse at 5 mg/kg, iv measured for 6 hrs by LC-MS/MS analysis", "assay_type": "ADME, organism-based", "conditions": "in vivo"}, "[26]": {"test": "Tmax in BALB/c mouse at 30 mg/kg, po measured for 6 hrs by LC-MS/MS analysis", "assay_type": "ADME, organism-based", "conditions": "in vivo"}, "[27]": {"test": "Antiproliferative activity against HEK293 cells assessed as cell growth inhibition incubated for 48 hrs by MTT assay", "assay_type": "toxicity, cell-based", "conditions": "human"}, "MIA PaCa-2 [28]": {"tested_on": "MIA PaCa-2", "test": "Induction of apoptosis in human MIA PaCa-2 cells assessed as apoptotic body formation incubated for 48 hrs by DAPI staining based analysis", "assay_type": "functional, cell-based"}}, "data": [{"smiles": "COc1cc(O)c2c(=O)cc(/C=C/c3c(F)cccc3Cl)oc2c1[C@H]1CC[N+](C)([O-])C[C@H]1O", "note": "(stereo not given in full)", "values": [{"measurement": "inhibition at 10 µM", "setting": "MIA PaCa-2 [1]", "value": 24.9, "unit": "%"}, {"measurement": "IC50", "setting": "CDK9/Cyclin K", "value": 2.28, "unit": "µM"}, {"measurement": "AUC(0-t) at 6 h", "setting": "[2]", "value": 400, "unit": "ng·h/mL"}, {"measurement": "Vd", "setting": "[3]", "value": 0.8, "unit": "L/kg"}, {"measurement": "Activity", "setting": "MIA PaCa-2 [4]", "value": "Dose-Dependent Effect"}, {"measurement": "Activity", "setting": "MIA PaCa-2 [5]", "value": "Dose-Dependent Effect"}, {"measurement": "CL/F", "setting": "[6]", "value": 1250, "unit": "mL/min/kg"}, {"measurement": "Activity", "setting": "MIA PaCa-2 [7]", "value": "Dose-Dependent Effect"}, {"measurement": "Vd", "setting": "[8]", "value": 17, "unit": "L/kg"}, {"measurement": "inhibition at 10 µM", "setting": "HCT-116 [9]", "value": 25.2, "unit": "%"}, {"measurement": "metabolised at 0.5 h, 10 µM", "setting": "[10]", "value": 16, "unit": "%"}, {"measurement": "half-life", "setting": "[11]", "value": 9.6, "unit": "min"}, {"measurement": "metabolised at 0.5 h, 10 µM", "setting": "[12]", "value": 16, "unit": "%"}, {"measurement": "C0 at 6 h", "setting": "[13]", "value": 19100, "unit": "ng/mL"}, {"measurement": "IC50", "setting": "CDK9/cyclin T1", "value": 0.15, "unit": "µM"}, {"measurement": "GI50", "setting": "HCT-116 [14]", "value": 2.53, "unit": "µM"}, {"measurement": "inhibition", "setting": "[15]", "value": 28.7, "unit": "%"}, {"measurement": "AUC(0-inf)", "setting": "[16]", "value": 957, "unit": "ng·h/mL"}, {"measurement": "GI50", "setting": "MIA PaCa-2 [17]", "value": 5.53, "unit": "µM"}, {"measurement": "clearance", "setting": "[18]", "value": 86.7, "unit": "mL/min/kg"}, {"measurement": "inhibition", "setting": "[19]", "value": 41.7, "unit": "%"}, {"measurement": "IC50", "setting": "[20]", "value": 0.54, "unit": "µM"}, {"measurement": "inhibition at 48 h, 10 µM", "setting": "[21]", "value": 14.9, "unit": "%"}, {"measurement": "AUC(0-inf)", "setting": "[22]", "value": 401, "unit": "ng·h/mL"}, {"measurement": "Cmax", "setting": "[23]", "value": 817, "unit": "ng/mL"}, {"measurement": "half-life", "setting": "[24]", "value": 6, "unit": "min"}, {"measurement": "AUC(0-t) at 6 h", "setting": "[25]", "value": 956, "unit": "ng·h/mL"}, {"measurement": "Tmax", "setting": "[26]", "value": 30, "unit": "min"}, {"measurement": "GI50 at 48 h", "setting": "[27]", "value": 81.5, "unit": "µM"}, {"measurement": "Activity", "setting": "MIA PaCa-2 [28]", "value": "Dose-Dependent Effect"}]}]}
